From US20200368247A1, “CENICRIVIROC FOR THE TREATMENT OF FIBROSIS” (Tobira Therapeutics, Inc., priority 2014, published 2020)

Tests used:
[1] = Study 202 treatment-emergent laboratory abnormalities (DAIDS grade); assay type: in vivo, human
From the text: The 12th subject (Subject 42001) had 2 consecutive CPK elevations (Grade 3 followed by Grade 4) that returned to normal values while continuing treatment at a subsequent visit. None of the CPK elevations were associated with clinical symptoms; no subjects discontinued due to CPK elevations and there were no differences in AEs related to musculoskeletal disorders between the CVC and EFV arms.
The number of subjects with graded treatment-emergent laboratory abnormalities in selected liver parameters of interest is shown in Table 34. No Grade 4 ALT or AST elevations were observed. Except for one Grade 3 AST elevation, all ALT and AST elevations were Grade 1 or Grade 2. […] All abnormalities in bilirubin were Grade 1 or Grade 2. […]

CCR2 = molecular target: T1, CCR2 (Homo sapiens, UniProt P41597); experiment: CCR2 receptor occupancy / MCP-1-induced CCR2 internalization in PBMCs, flow cytometry; assay type: cell-based
T1 construct: endogenous in cells; host or cells: monocytes within PBMCs from HIV+ and HIV- subjects
T1 sequence (P41597 1-360 isoform P41597-2): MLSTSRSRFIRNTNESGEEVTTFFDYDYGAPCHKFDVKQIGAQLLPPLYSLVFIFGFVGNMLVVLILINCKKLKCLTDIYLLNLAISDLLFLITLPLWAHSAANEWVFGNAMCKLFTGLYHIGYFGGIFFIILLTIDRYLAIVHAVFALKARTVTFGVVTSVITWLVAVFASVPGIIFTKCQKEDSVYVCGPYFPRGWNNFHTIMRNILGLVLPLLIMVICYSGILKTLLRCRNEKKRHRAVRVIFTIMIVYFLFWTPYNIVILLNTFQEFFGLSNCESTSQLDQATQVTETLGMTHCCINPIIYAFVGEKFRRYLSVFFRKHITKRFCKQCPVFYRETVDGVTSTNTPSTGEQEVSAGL
Method: The capacity of each drug to inhibit CCR5 or CCR2 internalization was evaluated. Cell-surface expression of CCR5 and CCR2 was assessed by flow cytometry, and fluorescence values were converted into molecules of equivalent soluble fluorescence (MESF).

[2] = tested on: RANTES-induced Ca2+ mobilization; experiment: RANTES-induced Ca2+ mobilization; assay type: cell-based
HIV-1 [3] = experiment: Study 201 PK/PD Emax model; assay type: in vivo, human
From the text: Drug response was characterized using the following maximum effect (Emax) model:
where E is effect, E0 is the baseline effect (fixed to 0), Imax is the maximum inhibition, C denotes the PK variable (AUC0-24, Cmax, or steady-state concentration [Css]), IC50 is the value of the PK variable which corresponds to 50% of the maximum inhibition and y is the shape parameter which describes the degree of sigmoidicity.

HIV-1 [4] = experiment: Study 201 drug resistance testing; assay type: in vivo, human; details: Baseline, Day 7, Day 40; subjects with evaluable samples
Method: In Study 201, drug resistance testing was performed at Baseline, Day 7, and Day 40 (or at the “Early Termination” visit, if applicable).

[5] = CVC 100 mg (N = 58), through Week 48
[6] = CVC 200 mg (N = 57), through Week 48

CCCCOCCOc1ccc(-c2ccc3c(c2)/C=C(/C(=O)Nc2ccc([S@@+]([O-])Cc4cncn4CCC)cc2)CCCN3CC(C)C)cc1 [CVC, (S)-8-[4-(2-Butoxyethoxy)phenyl]-1-isobutyl-N-(4-{[(1-propyl-1H-imidazol-5-yl)methyl]sulfinyl}phenyl)-1,2,3,4-tetrahydro-1-benzazocine-5-carboxamide]
ALT abnormality, worst Grade 3 ([1]; CVC 100 mg (N = 58)): 0 n (%) | ALT abnormality, worst Grade 4 ([1]; CVC 100 mg (N = 58)): 0 n (%) | AST abnormality, worst Grade 1 ([1]; CVC 100 mg (N = 58)): 8 (14%) n (%) | AST abnormality, worst Grade 2 ([1]; CVC 100 mg (N = 58)): 2 (3%) n (%) | AST abnormality, worst Grade 3 ([1]; CVC 100 mg (N = 58)): 1 (2%) n (%) | AST abnormality, worst Grade 4 ([1]; CVC 100 mg (N = 58)): 0 n (%) | Alanine aminotransferase (ALT) abnormality, any worst grade ([1]; CVC 100 mg (N = 58)): 7 (12%) n (%) | Aspartate aminotransferase (AST) abnormality, any worst grade ([1]; CVC 100 mg (N = 58)): 11 (19%) n (%) | Bilirubin abnormality, any worst grade ([1]; CVC 100 mg (N = 58)): 4 (7%) n (%) | Bilirubin abnormality, worst Grade 1 ([1]; CVC 100 mg (N = 58)): 1 (2%) n (%) | Bilirubin abnormality, worst Grade 2 ([1]; CVC 100 mg (N = 58)): 3 (5%) n (%) | Bilirubin abnormality, worst Grade 3 ([1]; CVC 100 mg (N = 58)): 0 n (%) | Bilirubin abnormality, worst Grade 4 ([1]; CVC 100 mg (N = 58)): 0 n (%) | AST increased, Grade 3 [1, 5]: 1 (2%) n (%) | Any Grade 3 laboratory abnormality [1, 5]: 4 (7%) n (%) | CPK increased, Grade 3 [1, 5]: 2 (3%) n (%) | Any graded (Grade 1-4) laboratory abnormality, % ([1]; CVC 200 mg): 96% | Worst Grade 1 laboratory abnormality, % ([1]; CVC 200 mg): 28% | Worst Grade 2 laboratory abnormality, % ([1]; CVC 200 mg): 47% | Worst Grade 3 laboratory abnormality, % ([1]; CVC 200 mg): 16% | Worst Grade 4 laboratory abnormality, % ([1]; CVC 200 mg): 5% | ALT abnormality, worst Grade 1 ([1]; CVC 200 mg (N = 57)): 6 (11%) n (%) | ALT abnormality, worst Grade 2 ([1]; CVC 200 mg (N = 57)): 2 (4%) n (%) | ALT abnormality, worst Grade 3 ([1]; CVC 200 mg (N = 57)): 0 n (%) | ALT abnormality, worst Grade 4 ([1]; CVC 200 mg (N = 57)): 0 n (%) | AST abnormality, worst Grade 1 ([1]; CVC 200 mg (N = 57)): 6 (11%) n (%) | AST abnormality, worst Grade 2 ([1]; CVC 200 mg (N = 57)): 4 (7%) n (%) | AST abnormality, worst Grade 3 ([1]; CVC 200 mg (N = 57)): 0 n (%) | AST abnormality, worst Grade 4 ([1]; CVC 200 mg (N = 57)): 0 n (%) | Alanine aminotransferase (ALT) abnormality, any worst grade ([1]; CVC 200 mg (N = 57)): 8 (14%) n (%) | Aspartate aminotransferase (AST) abnormality, any worst grade ([1]; CVC 200 mg (N = 57)): 10 (18%) n (%) | Bilirubin abnormality, any worst grade ([1]; CVC 200 mg (N = 57)): 3 (5%) n (%) | Bilirubin abnormality, worst Grade 1 ([1]; CVC 200 mg (N = 57)): 2 (4%) n (%) | Bilirubin abnormality, worst Grade 2 ([1]; CVC 200 mg (N = 57)): 1 (2%) n (%) | Bilirubin abnormality, worst Grade 3 ([1]; CVC 200 mg (N = 57)): 0 n (%) | Bilirubin abnormality, worst Grade 4 ([1]; CVC 200 mg (N = 57)): 0 n (%) | AST increased, Grade 3 [1, 6]: 0 n (%) | AST increased, Grade 4 [1, 6]: 0 n (%) | Any Grade 3 laboratory abnormality [1, 6]: 9 (16%) n (%) | Any Grade 3 or Grade 4 laboratory abnormality [1, 6]: 12 (21%) n (%) | Any Grade 4 laboratory abnormality [1, 6]: 3 (5%) n (%) | Aspartate aminotransferase (AST) increased (Grade 3 or 4) [1, 6]: 0 n (%) | CPK increased, Grade 3 [1, 6]: 6 (11%) n (%) | CPK increased, Grade 4 [1, 6]: 3 (5%) n (%) | Creatine phosphokinase (CPK) increased (Grade 3 or 4) [1, 6]: 9 (16%) n (%) | Fibrinogen decreased (Grade 3 or 4) [1, 6]: 2 (4%) n (%) | Fibrinogen decreased, Grade 3 [1, 6]: 2 (4%) n (%) | Fibrinogen decreased, Grade 4 [1, 6]: 0 n (%) | Hemoglobin decreased (Grade 3 or 4) [1, 6]: 0 n (%) | Hemoglobin decreased, Grade 3 [1, 6]: 0 n (%) | Hemoglobin decreased, Grade 4 [1, 6]: 0 n (%) | Neutrophils decreased (Grade 3 or 4) [1, 6]: 0 n (%) | Neutrophils decreased, Grade 3 [1, 6]: 0 n (%) | Neutrophils decreased, Grade 4 [1, 6]: 0 n (%) | Phosphate decreased (Grade 3 or 4) [1, 6]: 2 (4%) n (%) | Phosphate decreased, Grade 3 [1, 6]: 2 (4%) n (%) | Phosphate decreased, Grade 4 [1, 6]: 0 n (%) | concentration required to reach >80% receptor occupancy (CCR2; CCR2, average): 1.8 nM | prevention of MCP-1-induced CCR2 internalization (CCR2; PBMCs): at lower concentrations than BMS-22 | CCR2 cell-surface expression (CCR2; in the absence of MCP-1, monocytes): decreased cell-surface expression on monocytes | RANTES-induced Ca2+ mobilization [2]: blocked | percent of the maximum inhibitory effect at average Css (HIV-1 [3]; 25 mg): 54.9% | percent of the maximum inhibitory effect at average Css (HIV-1 [3]; 50 mg): 79.8% | percent of the maximum inhibitory effect at average Css (HIV-1 [3]; 75 mg): 85.9% | percent of the maximum inhibitory effect at average Css (HIV-1 [3]; 150 mg): 95.9% | Emax in the PK/PD model (HIV-1 RNA) (HIV-1 [3]; Emax model): −1.43 log10 copies/mL | drug susceptibility of virus (HIV-1 [4]): fully susceptible
